Reference: US4388311A, “Method for the induction of menses” (G. D. Searle & Co., priority 1982, dated 1983)
Values joined by “and” are separate entries in the source; they are usually repeats but may differ in a detail not shown here. Identical values can stand only once.

Columns and labels:
pregnancy in rats [1] = test: Termination of pregnancy in rats, compounds administered subcutaneously (Table 2); format: in vivo, rat
Procedure: (§1) The following tables list the results for a compound of Formula IV as compared with a control of previously known 2α-cyano-17β-hydroxy-3-oxo-4,4,17α-trimethylandrost-5-end(Cyanoketone) for termination of pregnancy.
^1 Compounds given subcutaneously in corn oil vehicle once daily on
days 10 through 13 of pregnancy. Serum for progesterone determination was
drawn on day 11 of pregnancy, 24 hours after the initial injection of
(§2) compound. The animals were autopsied on day 14 of pregnancy.
^2 Serum progesterone values determined by RIA at Interlab Associates

pregnancy in rats [2] = test: Pregnancy termination in rats, compounds administered intragastrically on day 10 of pregnancy (Table 3); format: in vivo, rat; conditions: autopsy day 14
Procedure: as §1
^1 Compounds were administered intragastrically once daily on days 10
of pregnancy in a vehicle consisting of PEG400, propylene glycol and 100
percent ethanol (50:40:10, v:v:v). Serum for progesterone determination
was drawn on day 11 of pregnancy, 24 hours after the initial injection of
as §2

[3] = 2 mg/kg/day subcutaneously in corn oil once daily days 10-13 of pregnancy, autopsy day 14
[4] = 4 mg/kg/day subcutaneously days 10-13 of pregnancy, serum day 11, 24 hours after initial injection
[5] = 4 mg/kg/day subcutaneously in corn oil once daily days 10-13 of pregnancy, autopsy day 14
[6] = 8 mg/kg/day subcutaneously days 10-13 of pregnancy, serum day 11, 24 hours after initial injection
[7] = 8 mg/kg/day subcutaneously in corn oil once daily days 10-13 of pregnancy, autopsy day 14
[8] = 16 mg/kg/day subcutaneously days 10-13 of pregnancy, serum day 11, 24 hours after initial injection
[9] = 16 mg/kg/day subcutaneously in corn oil once daily days 10-13 of pregnancy, autopsy day 14, 16 mg/kg/day
[10] = 32 mg/kg/day subcutaneously days 10-13 of pregnancy, serum day 11, 24 hours after initial injection
[11] = 32 mg/kg/day subcutaneously in corn oil once daily days 10-13 of pregnancy, autopsy day 14
[12] = 1 mg/kg intragastrically once on day 10 of pregnancy
[13] = 2 mg/kg intragastrically once on day 10 of pregnancy
[14] = 4 mg/kg intragastrically once on day 10 of pregnancy
[15] = 8 mg/kg intragastrically once on day 10 of pregnancy
[16] = 16 mg/kg intragastrically once on day 10 of pregnancy
[17] = 32 mg/kg intragastrically once on day 10 of pregnancy

CC1(C)C(=O)[C@H](C#N)C[C@@]2(C)C1=CC[C@@H]1[C@@H]2CC[C@@]2(C)[C@H]1CC[C@]2(C)O [Cyanoketone, 2α-cyano-17β-hydroxy-3-oxo-4,4,17α-trimethylandrost-5-end]
Adrenal Wt. mg + SE (pregnancy in rats [1]; [3]): 91.6 + 4.6 mg | Fetal Viability: Normal Fetuses/Implantation Sites (pregnancy in rats [1]; [3]): 94/103 | Fetal Viability: Normal Fetuses/Implantation Sites (Percent) (pregnancy in rats [1]; [3]): 91% | Number of Rats Pregnant/Number of Rats Treated (pregnancy in rats [1]; [3]): 8/8 | Number of Rats Pregnant/Number of Rats Treated (Percent) (pregnancy in rats [1]; [3]): 100% | Serum Progesterone (Percent Control) (pregnancy in rats [1]; [4]): 92 Percent Control | Serum Progesterone ng/ml + S.E. (pregnancy in rats [1]; [4]): 40.0 + 3.5 ng/ml | Adrenal Wt. mg + SE (pregnancy in rats [1]; [5]): 93.1 + 4.0 mg | Fetal Viability: Normal Fetuses/Implantation Sites (pregnancy in rats [1]; [5]): 27/87 | Fetal Viability: Normal Fetuses/Implantation Sites (Percent) (pregnancy in rats [1]; [5]): 32% | Number of Rats Pregnant/Number of Rats Treated (pregnancy in rats [1]; [5]): 3/6 | Number of Rats Pregnant/Number of Rats Treated (Percent) (pregnancy in rats [1]; [5]): 50% | Serum Progesterone (Percent Control) (pregnancy in rats [1]; [6]): 44 Percent Control | Serum Progesterone ng/ml + S.E. (pregnancy in rats [1]; [6]): 22.1 + 6.0 ng/ml | Adrenal Wt. mg + SE (pregnancy in rats [1]; [7]): 78.8 + 3.9 mg | Fetal Viability: Normal Fetuses/Implantation Sites (pregnancy in rats [1]; [7]): 36/119 | Fetal Viability: Normal Fetuses/Implantation Sites (Percent) (pregnancy in rats [1]; [7]): 30% | Number of Rats Pregnant/Number of Rats Treated (pregnancy in rats [1]; [7]): 5/10 | Number of Rats Pregnant/Number of Rats Treated (Percent) (pregnancy in rats [1]; [7]): 50% | Serum Progesterone (Percent Control) (pregnancy in rats [1]; [8]): 48 Percent Control | Serum Progesterone ng/ml + S.E. (pregnancy in rats [1]; [8]): 24.3 + 7.6 ng/ml | Serum Progesterone (Percent Control) (pregnancy in rats [1]; 16 mg/kg/day subcutaneously days 10-13 of pregnancy, serum day 11, determined by RIA at Interlab Associates (footnote 2)): 70 Percent Control | Serum Progesterone ng/ml + S.E. (pregnancy in rats [1]; 16 mg/kg/day subcutaneously days 10-13 of pregnancy, serum day 11, group whose values were determined by RIA at Interlab Associates (footnote 2)): 50.7 + 5.4 ng/ml | Adrenal Wt. mg + SE (pregnancy in rats [1]; [9]): 77.0 + 4.5 mg and 105.2 mg | Fetal Viability: Normal Fetuses/Implantation Sites (pregnancy in rats [1]; [9]): 26/103 and 11/94 | Number of Rats Pregnant/Number of Rats Treated (pregnancy in rats [1]; [9]): 3/9 and 2/8 | Number of Rats Pregnant/Number of Rats Treated (Percent) (pregnancy in rats [1]; [9]): 33% and 25% | Serum Progesterone (Percent Control) (pregnancy in rats [1]; [10]): 70 Percent Control | Serum Progesterone ng/ml + S.E. (pregnancy in rats [1]; [10]): 35.1 + 7.8 ng/ml | Adrenal Wt. mg + SE (pregnancy in rats [1]; [11]): 94.8 + 8.9 mg | Fetal Viability: Normal Fetuses/Implantation Sites (pregnancy in rats [1]; [11]): 15/63 | Fetal Viability: Normal Fetuses/Implantation Sites (Percent) (pregnancy in rats [1]; [11]): 24% | Number of Rats Pregnant/Number of Rats Treated (pregnancy in rats [1]; [11]): 2/6 | Number of Rats Pregnant/Number of Rats Treated (Percent) (pregnancy in rats [1]; [11]): 33% | Adrenal Wt. mg + SE (pregnancy in rats [2]; [12]): 55.8 + 4.1 mg | Fetal Viability: Normal Fetuses/Implantation Sites (pregnancy in rats [2]; [12]): 54/56 | Fetal Viability: Normal Fetuses/Implantation Sites (Percent) (pregnancy in rats [2]; [12]): 96% | Number of Rats Pregnant/Number of Rats Treated (pregnancy in rats [2]; [12]): 5/5 | Number of Rats Pregnant/Number of Rats Treated (Percent) (pregnancy in rats [2]; [12]): 100% | Adrenal Wt. mg + SE (pregnancy in rats [2]; [13]): 64.1 + 5.2 mg | Fetal Viability: Normal Fetuses/Implantation Sites (pregnancy in rats [2]; [13]): 56/77 | Fetal Viability: Normal Fetuses/Implantation Sites (Percent) (pregnancy in rats [2]; [13]): 72% | Number of Rats Pregnant/Number of Rats Treated (pregnancy in rats [2]; [13]): 6/6 | Number of Rats Pregnant/Number of Rats Treated (Percent) (pregnancy in rats [2]; [13]): 100% | Adrenal Wt. mg + SE (pregnancy in rats [2]; [14]): 75.9 + 6.1 mg | Fetal Viability: Normal Fetuses/Implantation Sites (pregnancy in rats [2]; [14]): 46/84 | Fetal Viability: Normal Fetuses/Implantation Sites (Percent) (pregnancy in rats [2]; [14]): 55% | Number of Rats Pregnant/Number of Rats Treated (pregnancy in rats [2]; [14]): 4/7 | Number of Rats Pregnant/Number of Rats Treated (Percent) (pregnancy in rats [2]; [14]): 57% | Fetal Viability: Normal Fetuses/Implantation Sites (pregnancy in rats [2]; [15]): 11/112 | Fetal Viability: Normal Fetuses/Implantation Sites (Percent) (pregnancy in rats [2]; [15]): 10% | Number of Rats Pregnant/Number of Rats Treated (pregnancy in rats [2]; [15]): 1/9 | Number of Rats Pregnant/Number of Rats Treated (Percent) (pregnancy in rats [2]; [15]): 11% | Adrenal Wt. mg + SE (pregnancy in rats [2]; [16]): 61.3 + 3.0 mg | Fetal Viability: Normal Fetuses/Implantation Sites (pregnancy in rats [2]; [16]): 8/108 | Fetal Viability: Normal Fetuses/Implantation Sites (Percent) (pregnancy in rats [2]; [16]): 7% | Number of Rats Pregnant/Number of Rats Treated (pregnancy in rats [2]; [16]): 1/9 | Number of Rats Pregnant/Number of Rats Treated (Percent) (pregnancy in rats [2]; [16]): 11% | Adrenal Wt. mg + SE (pregnancy in rats [2]; [17]): 60.3 + 1.6 mg | Fetal Viability: Normal Fetuses/Implantation Sites (pregnancy in rats [2]; [17]): 10/106 | Fetal Viability: Normal Fetuses/Implantation Sites (Percent) (pregnancy in rats [2]; [17]): 9% | Number of Rats Pregnant/Number of Rats Treated (pregnancy in rats [2]; [17]): 1/10 | Number of Rats Pregnant/Number of Rats Treated (Percent) (pregnancy in rats [2]; [17]): 10%
